# Assay results reported in the supplement of paper PMC10307832.
# Columns and labels:
# Test in all cases: relative viability (nuclei count vs DMSO), 5 days (fraction); higher = more cells survive
# H3255 = test system: H3255
# How it was run: (§1)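 Five library-drug doses in √10 steps were combined with a fixed anchor-drug dose, or a single drug was given alone, by pin tool to lung cancer cell lines in 1536-well plates the day after seeding. Nuclei were stained and counted after 5 days. Relative viability is the nuclei count in treated wells over that in vehicle wells, taken as the median of duplicate plates.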
# LU99A = test system: LU99A
# How it was run: as §1
# NCI-H23 = test system: NCI-H23
# How it was run: as §1
# NCI-H1563 = test system: NCI-H1563
# How it was run: as §1
# SW 1573 = test system: SW 1573
# How it was run: as §1
# PC-14 = test system: PC-14
# How it was run: as §1
# LCLC-103H = test system: LCLC-103H
# How it was run: as §1
# COR-L23 = test system: COR-L23
# How it was run: as §1
# NCI-H2228 = test system: NCI-H2228
# How it was run: as §1
# NCI-H1793 = test system: NCI-H1793
# How it was run: as §1
# PC-3 [JPC-3] = test system: PC-3 [JPC-3]
# How it was run: as §1
smiles,measurement,setting,value
O=c1cc(N2CCOCC2)oc2c(-c3cccc4c3sc3ccccc34)cccc12 + Nc1nc2[nH]cc(CCc3ccc(C(=O)N[C@@H](CCC(=O)O)C(=O)O)cc3)c2c(=O)[nH]1 [Pemetrexed] (partner 0.2 µM),relative viability,H3255; first compound 0.01 µM,0.552
same,relative viability,H3255; first compound 0.03162 µM,0.617
same,relative viability,H3255; first compound 0.1 µM,0.531
same,relative viability,H3255; first compound 0.3162 µM,0.585
same,relative viability,H3255; first compound 1 µM,0.553
same,relative viability,LU99A; first compound 0.01 µM,0.177
same,relative viability,LU99A; first compound 0.03162 µM,0.195
same,relative viability,LU99A; first compound 0.1 µM,0.139
same,relative viability,LU99A; first compound 0.3162 µM,0.19
same,relative viability,LU99A; first compound 1 µM,0.176
same,relative viability,NCI-H23; first compound 0.01 µM,0.732
same,relative viability,NCI-H23; first compound 0.03162 µM,0.761
same,relative viability,NCI-H23; first compound 0.3162 µM,0.659
same,relative viability,NCI-H23; first compound 1 µM,0.609
same,relative viability,NCI-H1563; first compound 0.01 µM,0.863
same,relative viability,NCI-H1563; first compound 0.03162 µM,0.778
same,relative viability,NCI-H1563; first compound 0.1 µM,0.761
same,relative viability,NCI-H1563; first compound 0.3162 µM,0.767
same,relative viability,NCI-H1563; first compound 1 µM,0.641
same,relative viability,SW 1573; first compound 0.01 µM,0.847
same,relative viability,SW 1573; first compound 0.03162 µM,0.937
same,relative viability,SW 1573; first compound 0.1 µM,0.824
same,relative viability,SW 1573; first compound 0.3162 µM,0.857
same,relative viability,SW 1573; first compound 1 µM,0.778
same,relative viability,PC-14; first compound 0.01 µM,0.133
same,relative viability,PC-14; first compound 0.03162 µM,0.153
same,relative viability,PC-14; first compound 0.1 µM,0.131
same,relative viability,PC-14; first compound 0.3162 µM,0.114
same,relative viability,PC-14; first compound 1 µM,0.132
same,relative viability,LCLC-103H; first compound 0.01 µM,0.44
same,relative viability,LCLC-103H; first compound 0.03162 µM,0.503
same,relative viability,LCLC-103H; first compound 0.1 µM,0.485
same,relative viability,LCLC-103H; first compound 0.3162 µM,0.465
same,relative viability,LCLC-103H; first compound 1 µM,0.457
same,relative viability,COR-L23; first compound 0.01 µM,0.189
same,relative viability,COR-L23; first compound 0.03162 µM,0.204
same,relative viability,COR-L23; first compound 0.1 µM,0.203
same,relative viability,COR-L23; first compound 0.3162 µM,0.201
same,relative viability,COR-L23; first compound 1 µM,0.204
same,relative viability,NCI-H2228; first compound 0.01 µM,0.342
same,relative viability,NCI-H2228; first compound 0.03162 µM,0.356
same,relative viability,NCI-H2228; first compound 0.1 µM,0.396
same,relative viability,NCI-H2228; first compound 0.3162 µM,0.356
same,relative viability,NCI-H2228; first compound 1 µM,0.355
same,relative viability,NCI-H1793; first compound 0.01 µM,0.776
same,relative viability,NCI-H1793; first compound 0.03162 µM,0.728
same,relative viability,NCI-H1793; first compound 0.1 µM,1.01
same,relative viability,NCI-H1793; first compound 0.3162 µM,0.961
same,relative viability,NCI-H1793; first compound 1 µM,0.74
same,relative viability,PC-3 [JPC-3]; first compound 0.01 µM,1.09
same,relative viability,PC-3 [JPC-3]; first compound 0.03162 µM,1.14
same,relative viability,PC-3 [JPC-3]; first compound 0.1 µM,1.05
same,relative viability,PC-3 [JPC-3]; first compound 0.3162 µM,1.1
same,relative viability,PC-3 [JPC-3]; first compound 1 µM,1.1
